“And” between values parts separate entries of the source, which are not always exact repeats. Identical values can stand only once.
Columns and labels:
[1] = system: HCT-116 cells; assay: Test for inhibiting sphere-forming ability of cancer cells in the presence of BSA (Test Example 2); format: cell-based; conditions: Homo sapiens, 96 h; HCT-116 spheres, 5% bovine serum albumin (BSA), 4 days, CellTiter-Glo; read-out: Sphere IC50 value (concentration for 50% inhibition of cell proliferation)
Description: (§1) HCT-116 cells were available from the American Type Culture Collection (ATCC). HCT-116 cells were cultured at 37° C. and 5% CO2 using the McCoy's 5a medium containing 10% fetal bovine serum (FBS) and 1% penicillin/streptomycin. […] The test compounds were added into each well to adjust the final concentration of DMSO to 0.1%, and the cells were cultured for 4 days.

[2] = system: HCT-116 cells; assay: Inhibition of sphere-forming ability of cancer cells (Test Example 1); format: cell-based; conditions: Homo sapiens, 96 h; HCT-116 spheres, non-adherent, serum-free, 4 days, CellTiter-Glo; read-out: Sphere IC50 value (concentration for 50% inhibition of cell proliferation)
Description: as §1

[3] = system: HCT-116 tumor-bearing mouse; assay: Anti-tumor effect to HCT-116 tumor-bearing mouse (Test Example 4); format: in vivo; conditions: nude mouse, oral
Excerpt: The present compound can be used to evaluate the anti-tumor effect thereof. A 4 to 7-week-old nude mouse (BALB/cAnNCrj-nu/nu, female, CHARLES RIVER LABORATORIES JAPAN, INC.) received intradermal transplantation of HCT-116 cells (ATCC) in an amount of 3×10^6 cells/mouse around the ventral portion. The engraftment of HCT-116 cells was observed 5 to 14 days after the transplantation, and then each compound suspended in a solvent such as 0.5% methylcellulose solution was orally administrated to the mouse in a dose of 1 to 100 mg/kg one to twice daily. The tumor volume was measured over time after the administration to evaluate the effect for reducing the tumor volume by the administration of each compound. The tumor volume can be calculated from the minor axis and the major axis of the tumor measured with a digital caliper (Mitutoyo) according to the following formula: Tumor volume [mm^3]=0.5×minor axis [mm]×(major axis [mm])^2
The tumor volume in control administration group treated with only a solvent such as 0.5% methylcellulose solution was compared with that of the present compound administration group, and T/C value was calculated according the following formula to evaluate the anti-tumor effect of the present compound. T/C (%)=(the tumor volume at the end of administration in the present compound administration group−the tumor volume at the start of administration in the present compound administration group)/(the tumor volume at the end of administration in the control administration group−the tumor volume at the start of administration in the […] administration group)×100
The T/C values (%) of the present compound on each dosage and administration period in the HCT-116 tumor-bearing mouse are shown below.

[4] = dosage 30 mg/kg, administration period 17 days
[5] = dosage 100 mg/kg, administration period 17 days

Structure (SMILES)	IC50 [1] [nM]	IC50 [2] [nM]	T/C (%) [3, 4]	T/C (%) [3, 5] [%]	T/C (%) ([3]; dosage 100 mg/kg, administration period 16 days)
Cc1cc(C(=O)Nc2cn(Cc3cc(F)c(F)c(F)c3)cn2)cnc1CO [Example 39, 6-(hydroxymethyl)-5-methyl-N-[1-(3,4,5-trifluorobenzyl)-1H-imidazol-4-yl]nicotinamide]	< 10	< 10	79%	65	–
Nc1cc(C(=O)Nc2cn(Cc3cccc(C(F)(F)F)c3)cn2)cnc1CO [Example 45, 5-Amino-6-(hydroxymethyl)-N-{1-[3-(trifluoromethyl)benzyl]-1H-imidazol-4-yl}nicotinamide]	59	29	90% and 91%	81	–
O=C(Nc1cn(Cc2cc(F)c(F)c(F)c2)cn1)c1cnc(CO)c(C(F)F)c1 [Example 18, 5-(difluoromethyl)-6-(hydroxymethyl)-N-[1-(3,4,5-trifluorobenzyl)-1H-imidazol-4-yl]nicotinamide]	53	< 10	63%	54	–
O=C(Nc1cn(Cc2cccc(C(F)(F)F)c2)cn1)c1ccc(CO)nc1 [Example 12, 6-(hydroxymethyl)-N-{1-[3-(trifluoromethyl)benzyl]-1H-imidazol-4-yl}nicotinamide]	60	< 10	–	–	49
Nc1cc(C(=O)Nc2cn(Cc3cc(F)c(F)c(F)c3)cn2)cnc1CO [Example 46, 5-Amino-6-(hydroxymethyl)-N-[1-(3,4,5-trifluorobenzyl)-1H-imidazol-4-yl]nicotinamide]	57	10	–	91	–
O=C(Nc1nc(CO)cs1)c1cn(Cc2cc(F)c(F)c(F)c2)cn1 [Example 3]	51	< 10	–	–	–
O=C(Nc1cn(Cc2cccc(C(F)(F)F)c2)cn1)c1coc(CO)n1 [Example 37]	451	238	–	–	–
Cc1cc(C(=O)Nc2cn(Cc3cccc(C(F)(F)F)c3)cn2)cnc1CO [Example 42, 6-(Hydroxymethyl)-5-methyl-N-{1-[3-(trifluoromethyl)benzyl]-1H-imidazol-4-yl}nicotinamide]	60	< 10	–	–	–
O=C(Nc1cn(Cc2cccc(Br)c2)cn1)c1cnc(CO)c(C(F)F)c1 [Example 58, N-[1-(3-bromobenzyl)-1H-imidazol-4-yl]-5-(difluoromethyl)-6-(hydroxymethyl)nicotinamide]	80	70	–	–	–
O=C(Nc1cn(Cc2cc(F)c(F)c(F)c2)cn1)c1csc(CO)n1 [Example 8]	578	77	–	–	–
O=C(Nc1cn(Cc2ccc(F)c(Br)c2)cn1)c1cnc(CO)c(C(F)F)c1 [Example 62, N-[1-(3-bromo-4-fluorobenzyl)-1H-imidazol-4-yl]-5-(difluoromethyl)-6-(hydroxymethyl)nicotinamide]	50	< 10	–	–	–
Cc1ccc(Cn2cnc(NC(=O)c3cnc(CO)c(C(F)F)c3)c2)cc1C(F)(F)F [Example 70, 5-(difluoromethyl)-6-(hydroxymethyl)-N-{1-[4-methyl-3-(trifluoromethyl)benzyl]-1H-imidazol-4-yl}nicotinamide]	60	< 10	–	–	–
O=C(Nc1cn(Cc2cccc(C(F)(F)F)c2)cn1)c1cnc(CO)c(C(F)(F)F)c1 [Example 19, 6-(hydroxymethyl)-5-(trifluoromethyl)-N-{1-[3-(trifluoromethyl)benzyl]-1H-imidazol-4-yl}nicotinamide]	403	70	–	–	–
O=C(Nc1cn(Cc2cccc(C(F)(F)F)c2)cn1)c1cnc(C(O)CO)c(Br)c1 (centres unmarked) [Example 29]	3500	633	–	–	–
O=C(Nc1cn(Cc2ccc(Cl)c(Cl)c2)cn1)c1cnc(CO)c(C(F)F)c1 [Example 71, N-[1-(3,4-dichlorobenzyl)-1H-imidazol-4-yl]-5-(difluoromethyl)-6-(hydroxymethyl)nicotinamide]	60	< 10	–	–	–
O=C(Nc1cn(Cc2cc(F)c(F)c(F)c2)cn1)c1ccc(CO)nn1 [Example 85, 6-(Hydroxymethyl)-N-[1-(3,4,5-trifluorobenzyl)-1H-imidazol-4-yl]pyridazine-3-carboxamide]	30	20	–	–	–
O=C(Nc1cn(Cc2ccc(Cl)c(F)c2)cn1)c1cnc(CO)c(C(F)F)c1 [Example 66, N-[1-(4-chloro-3-fluorobenzyl)-1H-imidazol-4-yl]-5-(difluoromethyl)-6-(hydroxymethyl)nicotinamide]	60	70	–	–	–
O=C(Nc1cn(Cc2cccc(C(F)(F)F)c2)cn1)c1cc(CO)on1 [Example 21]	767	653	–	–	–
O=C(Nc1cn(Cc2cccc(Cl)c2)cn1)c1cnc(CO)c(C(F)F)c1 [Example 55, N-[1-(3-chlorobenzyl)-1H-imidazol-4-yl]-5-(difluoromethyl)-6-(hydroxymethyl)nicotinamide]	619	75	–	–	–
CC(=O)NCc1ccc(C(=O)Nc2cn(Cc3cccc(C(F)(F)F)c3)cn2)cn1 [Example 25, 6-[(Acetylamino)methyl]-N-{1-[3-(trifluoromethyl)benzyl]-1H-imidazol-4-yl}nicotinamide]	4970	4480	–	–	–
NCc1ccc(C(=O)Nc2cn(Cc3cccc(C(F)(F)F)c3)cn2)cn1 [Example 24, 6-(Aminomethyl)-N-{1-[3-(trifluoromethyl)benzyl]-1H-imidazol-4-yl}nicotinamide ditrifluoroacetate]	696	61	–	–	–
O=C(Nc1cn(Cc2ccc(Br)c(F)c2)cn1)c1cnc(CO)c(C(F)F)c1 [Example 67, N-[1-(4-bromo-3-fluorobenzyl)-1H-imidazol-4-yl]-5-(difluoromethyl)-6-(hydroxymethyl)nicotinamide]	70	40	–	–	–
O=C(Nc1cn(Cc2cccc(C(F)(F)F)c2)cn1)c1cnc(CO)c(C(F)F)c1 [Example 17, 5-(difluoromethyl)-6-(hydroxymethyl)-N-{1-[3-(trifluoromethyl)benzyl]-1H-imidazol-4-yl}nicotinamide]	57	< 10	74%	75	–
O=C(Nc1cn(Cc2cc(F)cc(F)c2)cn1)c1cnc(CO)c(C(F)F)c1 [Example 79, N-[1-(3,5-difluorobenzyl)-1H-imidazol-4-yl]-5-(difluoromethyl)-6-(hydroxymethyl)nicotinamide]	60	80	–	–	–
Cc1nc(C(=O)Nc2cn(Cc3cc(F)c(F)c(F)c3)cn2)sc1CO [Example 48, 5-(Hydroxymethyl)-4-methyl-N-[1-(3,4,5-trifluorobenzyl)-1H-imidazol-4-yl]-1,3-thiazole-2-carboxamide]	571	95	–	–	–
O=C(Nc1cn(Cc2cccc(C(F)(F)F)c2)cn1)c1cnc(CO)cc1Cl [Example 36]	481	74	–	–	–

Reference: US11661397B2, “1,4-disubstituted imidazole derivative” (Sumitomo Pharma Co., Ltd., priority 2015, dated 2023)
